# Test results taken from ChEMBL document CHEMBL1156076, “Design and efficient synthesis of novel arylthiourea derivatives as potent hepatitis C virus inhibitors” (Bioorg Med Chem Lett, 2009).
# Key:
# [1] = Cytotoxicity against human HuH7 cells; type: cell-based, Huh-7
# Hepatitis C virus = assay: Antiviral activity against HCV 1b infected in human HuH7 cells assessed as inhibition of viral sub-genomic replication by EG(delta-4AB)SEAP reporter protein assay; type: functional, organism-based, Hepacivirus hominis; details: genotype 1b, Huh-7
# [2] = Selectivity index, ratio of CC50 for human HuH7 cells to EC50 for HCV 1b; design: species or system Huh-7
SMILES,EC50 (Hepatitis C virus) [nM],CC50 [1] [nM],Ratio CC50/EC50 [2]
NC(=S)Nc1cccc(OCCCCCc2ccccc2)c1,48,22000,458
NC(=S)Nc1cccc(OCCCCCN2CCN(c3ccc(Cl)cc3)C2=O)c1,280,39000,139
NC(=S)Nc1cccc(OCCCCCN2CCN(c3ccc(C4CCCCC4)cc3)C2=O)c1,290,12000,41
NC(=S)Nc1cccc(OCCCCCN2CCCCN(c3ccc(Cl)cc3)C2=O)c1,250,13000,52
NC(=S)Nc1cccc(OCCCCCN2CCN(c3ccc(Oc4ccccc4)cc3)C2=O)c1,27000,> 50000,>2
NC(=S)Nc1cccc(OCCCCCN2CCCN(c3ccc(Cl)cc3)C2=O)c1,1500,15000,10
NC(=S)Nc1cccc(OCCCCCN2CCN(c3ccccc3-c3ccccc3)C2=O)c1,396,12000,30
NC(=S)Nc1cccc(OCCCCCCCCNC(=S)Nc2ccc3c(c2)c2ccccc2n3-c2ccccc2)c1,96,> 50000,>521
Cc1c(NC(N)=S)cccc1OCCCCCNC(=S)Nc1cccc2ccccc12,> 50000,> 50000,>1
NC(=S)Nc1cccc(OCCCCCN2CCN(c3ccccc3-c3ccccc3)C2=S)c1,234,> 50000,>214
Cc1ccc(OCCCCCNC(=S)Nc2cccc3ccccc23)cc1NC(N)=S,1030,> 50000,>49
NC(=S)Nc1cccc(OCCCCCCCCNC(=S)Nc2ccc3c(c2)c2ccccc2n3CCc2ccccc2)c1,33,> 50000,>1515
Cc1ccc(-n2c3ccccc3c3cc(NC(=S)NCCCCCCCCOc4cccc(NC(N)=S)c4)ccc32)cc1,31,> 50000,>1612
NC(=S)Nc1cccc(OCCCCCCCCNC(=S)Nc2ccc3c(c2)c2ccccc2n3Cc2ccccc2)c1,36,> 50000,>1389
Cc1cc(C)cc(-n2c3ccccc3c3cc(NC(=S)NCCCCCCCCOc4cccc(NC(N)=S)c4)ccc32)c1,44,> 50000,>1136
NC(=S)Nc1cccc(OCCCCCNC(=O)Nc2cccc3ccccc23)c1,1390,> 50000,>36
NC(=S)Nc1cccc(OCCCCCN2CCN(c3ccc(Cl)cc3)C2=S)c1,260,> 50000,>192
NC(=S)Nc1cccc(OCCCCCN2CCN(c3cccnc3)C2=O)c1,> 50000,> 50000,>1
NC(=S)Nc1cccc(OCCCCCN2CCN(c3ccc(C4CCCCC4)cc3)C2=S)c1,167,> 50000,>299
NC(=S)Nc1cccc(OCCCCCN2CCN(c3ccc(Cl)c(Cl)c3)C2=O)c1,210,13000,62
NC(=S)Nc1cccc(OCCCCCN2CCN(c3cccc4ccccc34)C2=O)c1,570,15000,26
NC(=S)Nc1cccc(OCCCCCN2CCN(c3ccc(Cl)c(Cl)c3)C2=S)c1,200,> 50000,>250

# More lines, main results first:
EC50 (Hepatitis C virus) [nM],SMILES,CC50 [1] [nM],Ratio CC50/EC50 [2]
316,NC(=S)Nc1cccc(OCCCCCCCCNC(=S)Nc2ccc(N3CCOCC3)cc2)c1,> 50000,>158
62,NC(=S)Nc1cccc(OCCCCCCCCNC(=S)Nc2ccc(Cl)cc2)c1,18000,290
71,NC(=S)Nc1cccc(OCCCCCCCCNC(=S)Nc2ccc(C3CCCCC3)cc2)c1,> 50000,>704
47,NC(=S)Nc1cccc(OCCCCCCCCNC(=S)Nc2ccc(Br)cc2)c1,18000,383
53,NC(=S)Nc1cccc(OCCCCCCCCNC(=S)Nc2ccc3c(c2)C(=O)c2ccccc2-3)c1,> 50000,>943
80,Cn1c2ccccc2c2cc(NC(=S)NCCCCCCCCOc3cccc(NC(N)=S)c3)ccc21,> 50000,>625
45,CCCCn1c2ccccc2c2cc(NC(=S)NCCCCCCCCOc3cccc(NC(N)=S)c3)ccc21,> 50000,>1111
54,CCn1c2ccccc2c2cc(NC(=S)NCCCCCCCCOc3cccc(NC(N)=S)c3)ccc21,> 50000,>926
88,NC(=S)Nc1cccc(OCCCCCCCNC(=S)Nc2cc(Cl)cc(Cl)c2)c1,20000,227
118,NC(=S)Nc1cccc(OCCCCCCCCNC(=S)Nc2ccc3c(c2)Cc2ccccc2-3)c1,25000,212
48,CCCn1c2ccccc2c2cc(NC(=S)NCCCCCCCCOc3cccc(NC(N)=S)c3)ccc21,> 50000,>1042
177,NC(=S)Nc1cccc(OCCCCCNC(=S)Nc2cc(Cl)cc(Cl)c2)c1,18000,102
93,NC(=S)Nc1cccc(OCCCCCCCCNC(=S)Nc2cccc(Br)c2)c1,20000,215
34,NC(=S)Nc1cccc(OCCCCCCCCNC(=S)Nc2cc(Cl)cc(Cl)c2)c1,12000,353
36,CCCCCCn1c2ccccc2c2cc(NC(=S)NCCCCCCCCOc3cccc(NC(N)=S)c3)ccc21,> 50000,>1389
148,NC(=S)Nc1cccc(OCCCCCCCCNC(=S)Nc2ccc3[nH]ccc3c2)c1,18000,122
510,NC(=S)Nc1cccc(OCCCCCNC(=S)Nc2ccc(Cl)cc2)c1,> 50000,>98
109,NC(=S)Nc1cccc(OCCCCCCCCNC(=S)Nc2ccccc2)c1,> 50000,>459
122,NC(=S)Nc1cccc(OCCCCCCNC(=S)Nc2cc(Cl)cc(Cl)c2)c1,21000,172
450,NC(=S)Nc1cccc(OCCCCCNC(=S)Nc2cccc3ccccc23)c1,> 50000,>111
131,NC(=S)Nc1cccc(OCCCCCCCCNC(=S)Nc2ccccc2Br)c1,36000,275
60,CC(C)(C)c1ccc(NC(=S)NCCCCCCCCOc2cccc(NC(N)=S)c2)cc1,17000,283
89,NC(=S)Nc1cccc(OCCCCCCCCNC(=S)Nc2ccc3[nH]c4ccccc4c3c2)c1,> 50000,>562
42,CCCCCn1c2ccccc2c2cc(NC(=S)NCCCCCCCCOc3cccc(NC(N)=S)c3)ccc21,> 50000,>1190
80,NC(=S)Nc1cccc(OCCCCCCCCNC(=S)Nc2ccc3c(c2)CCC3)c1,34000,425
